Assay results: article PMC7864192 (Cancers, 2021)
Where two headings read alike, the source gives them in different places.

Tests used:
[1] = tested on: GCPA007 T2.IV patient-derived AGCT cell line; experiment: Cell viability drug screen (Cell Titer Glo 2.0, 72 h), mono- and combination therapy, GCPA007T2.IV; settings: for IC50: read-out: IC50 in monotherapy
[2] = tested on: GCPA108 T3.IV patient-derived AGCT cell line; experiment: Cell viability drug screen (Cell Titer Glo 2.0, 72 h), mono- and combination therapy, GCPA108T3.IV; settings: for IC50: read-out: IC50 in monotherapy
Experimental: Cell lines were seeded at a density of 500 cells/well in 40 uL in 384-well plates (Corning, NY, USA) with the Multidrop™ cell dispenser (Thermo Fischer Scientific, Waltham, MA, USA) and sealed with Breathe-Easy® membrane (Sigma-Aldrich, St. Louis, MO, USA) to prevent evaporation. The SVOG-3e line was seeded at 1000 cells/well due to contact-dependent growth requirements. For each cell line, three biological repeats and two technical repeats each were performed in order to ensure the validity of the drug screens. […] Subsequently, 11 drugs and 12 drug combinations were dispensed and all wells (excluding blanks and non-DMSO control wells) were normalized to 1% DMSO using the HP Tecan D300e Digital Dispenser (Hewlett-Packard, Palo Alto, CA, USA). All drugs were applied in linear concentration ranges (Table 2), including 16 data points to enable combination drug testing at constant ratios (Table 3). Next, the plates were covered with the Breathe-Easy membrane and incubated. After 72 h, the Multidrop dispensed 15 uL per well of Cell Titer Glo 2.0 (Thermo Fischer Scientific, Waltham, MA, USA) and plates were incubated in the dark for 10 min. After incubation, luminescence excitation was assessed in the Spectramax reader (Molecular Devices, San Jose, CA, USA) (top read, luminescence excitation at 500 nm) and raw data were processed in Microsoft Excel to subtract background luminescence. The Z-factor, a mathematical method used to quantify the quality of a drug screen based on the calculation of the separation band between the values of the positive and negative controls, was utilized to assess the quality of drug screens [54]. Screens with a Z-factor value of >0.5 were used for further analysis.
(§1) Overall cell survival (in %) was plotted against the drug concentration range of each drug (in log10[μM]) using GraphPad Prism 8.3.1. Values that exceeded 100% survival (within +20% biological deviation) were normalized to 100% survival. Similarly, values below 0% cell survival (within −20% biological deviation) were normalized to 0% survival. Values exceeding this deviation were excluded. Dose–response curves were obtained using the model “log(inhibitor) vs. variable slope (normalized response)” to fit the dose–response curves and R^2 values were used to indicate how well the model fit the data (Supplementary Materials Figures S4 and S5). […] The maximum plasma concentration (Cmax) and the plasma concentration at steady state (Css) were used as toxicity thresholds. The Cmax was utilized for drugs in which short, high-dosage time courses are required, while the Css was used for maintenance therapy regimes such as anti-hormonal treatment. […] The IC50 values were calculated based on the Chou–Talalay method using Compusyn software [55]. For anti-hormonal treatment, mostly provided as maintenance therapy, we used IC10 values in addition to the IC50.
(§2) In addition to the 11 monotherapies, 12 drug combinations were tested (Table 3) simultaneously with the individual drug treatments in the same 384-well plate. […] Synergy was evaluated using the mass action law, a systematic analysis assessing dose–response dynamics in a cost-effective manner [56, 57]. The combination index (CI) was used to indicate antagonistic (CI > 1) additive (CI = 1) and synergistic (CI < 1) effects [55].

[3] = tested on: GCPA113 T1.I patient-derived AGCT cell line; experiment: Cell viability drug screen (Cell Titer Glo 2.0, 72 h), mono- and combination therapy, GCPA113T1.I; settings: for IC50: read-out: IC50 in monotherapy
Experimental: (§3) Cell lines were seeded at a density of 500 cells/well in 40 uL in 384-well plates (Corning, NY, USA) with the Multidrop™ cell dispenser (Thermo Fischer Scientific, Waltham, MA, USA) and sealed with Breathe-Easy® membrane (Sigma-Aldrich, St. Louis, MO, USA) to prevent evaporation. […] For each cell line, three biological repeats and two technical repeats each were performed in order to ensure the validity of the drug screens. […] Subsequently, 11 drugs and 12 drug combinations were dispensed and all wells (excluding blanks and non-DMSO control wells) were normalized to 1% DMSO using the HP Tecan D300e Digital Dispenser (Hewlett-Packard, Palo Alto, CA, USA). […] Next, the plates were covered with the Breathe-Easy membrane and incubated. After 72 h, the Multidrop dispensed 15 uL per well of Cell Titer Glo 2.0 (Thermo Fischer Scientific, Waltham, MA, USA) and plates were incubated in the dark for 10 min. After incubation, luminescence excitation was assessed in the Spectramax reader (Molecular Devices, San Jose, CA, USA) (top read, luminescence excitation at 500 nm) and raw data were processed in Microsoft Excel to subtract background luminescence. The Z-factor, a mathematical method used to quantify the quality of a drug screen based on the calculation of the separation band between the values of the positive and negative controls, was utilized to assess the quality of drug screens [54]. Screens with a Z-factor value of >0.5 were used for further analysis.
(§4) Overall cell survival (in %) was plotted against the drug concentration range of each drug (in log10[μM]) using GraphPad Prism 8.3.1. Values that exceeded 100% survival (within +20% biological deviation) were normalized to 100% survival. Similarly, values below 0% cell survival (within −20% biological deviation) were normalized to 0% survival. Values exceeding this deviation were excluded. Dose–response curves were obtained using the model “log(inhibitor) vs. variable slope (normalized response)” to fit the dose–response curves and R^2 values were used to indicate how well the model fit the data (Supplementary Materials Figures S4 and S5). […] The IC50 values were calculated based on the Chou–Talalay method using Compusyn software [55]. For anti-hormonal treatment, mostly provided as maintenance therapy, we used IC10 values in addition to the IC50.
as §2

[4] = tested on: GCPA113 T1.II patient-derived AGCT cell line; experiment: Cell viability drug screen (Cell Titer Glo 2.0, 72 h), mono- and combination therapy, GCPA113T1.II; settings: for IC50: read-out: IC50 in monotherapy
Experimental: as §3, §4, §2

[5] = tested on: GCPA007 T2.I patient-derived AGCT cell line; experiment: Cell viability drug screen (Cell Titer Glo 2.0, 72 h), mono- and combination therapy, GCPA007T2.I; settings: for IC50: read-out: IC50 in monotherapy
Experimental: (§5) Cell lines were seeded at a density of 500 cells/well in 40 uL in 384-well plates (Corning, NY, USA) with the Multidrop™ cell dispenser (Thermo Fischer Scientific, Waltham, MA, USA) and sealed with Breathe-Easy® membrane (Sigma-Aldrich, St. Louis, MO, USA) to prevent evaporation. The SVOG-3e line was seeded at 1000 cells/well due to contact-dependent growth requirements. For each cell line, three biological repeats and two technical repeats each were performed in order to ensure the validity of the drug screens. […] Subsequently, 11 drugs and 12 drug combinations were dispensed and all wells (excluding blanks and non-DMSO control wells) were normalized to 1% DMSO using the HP Tecan D300e Digital Dispenser (Hewlett-Packard, Palo Alto, CA, USA). All drugs were applied in linear concentration ranges (Table 2), including 16 data points to enable combination drug testing at constant ratios (Table 3). Next, the plates were covered with the Breathe-Easy membrane and incubated. After 72 h, the Multidrop dispensed 15 uL per well of Cell Titer Glo 2.0 (Thermo Fischer Scientific, Waltham, MA, USA) and plates were incubated in the dark for 10 min. After incubation, luminescence excitation was assessed in the Spectramax reader (Molecular Devices, San Jose, CA, USA) (top read, luminescence excitation at 500 nm) and raw data were processed in Microsoft Excel to subtract background luminescence. […] Screens with a Z-factor value of >0.5 were used for further analysis.
as §1, §2

[6] = tested on: KGN cells (AGCT cell line); experiment: Cell viability drug screen (Cell Titer Glo 2.0, 72 h), mono- and combination therapy, KGN
[7] = tested on: GCPA113 T1.III patient-derived AGCT cell line; experiment: Cell viability drug screen (Cell Titer Glo 2.0, 72 h), mono- and combination therapy, GCPA113T1.III; settings: for IC50: read-out: IC50 in monotherapy
Experimental: as §3, §4, §2

[8] = tested on: GCPA096 T1.I patient-derived AGCT cell line; experiment: Cell viability drug screen (Cell Titer Glo 2.0, 72 h), mono- and combination therapy, GCPA096T1.I; settings: for IC50: read-out: IC50 in monotherapy
Experimental: as §3, §4, §2

[9] = tested on: GCPA096 T1.XVI patient-derived AGCT cell line; experiment: Cell viability drug screen (Cell Titer Glo 2.0, 72 h), mono- and combination therapy, GCPA096T1.XVI; settings: for IC50: read-out: IC50 in monotherapy
Experimental: as §5, §1, §2

[10] = tested on: GCPA096 T1.XV patient-derived AGCT cell line; experiment: Cell viability drug screen (Cell Titer Glo 2.0, 72 h), mono- and combination therapy, GCPA096T1.XV; settings: for IC50: read-out: IC50 in monotherapy, 72 h
[11] = tested on: GCPA096 T1.V patient-derived AGCT cell line; experiment: Cell viability drug screen (Cell Titer Glo 2.0, 72 h), mono- and combination therapy, GCPA096T1.V; settings: for IC50: read-out: IC50 in monotherapy, 72 h
Experimental: as §5, §1, §2

[12] = tested on: GCPA096 T1.II patient-derived AGCT cell line; experiment: Cell viability drug screen (Cell Titer Glo 2.0, 72 h), mono- and combination therapy, GCPA096T1.II; settings: for IC50: read-out: IC50 in monotherapy, 72 h
Experimental: as §5, §1, §2

[13] = tested on: GCPA028 T1.II patient-derived AGCT cell line; experiment: Cell viability drug screen (Cell Titer Glo 2.0, 72 h), mono- and combination therapy, GCPA028; settings: for IC50: read-out: IC50 in monotherapy
[14] = cited from earlier work; for Cmax: read-out: Cmax/Css plasma
[15] = human plasma maximum/steady state concentration, ref phase I/II clinical trials

SMILES: Nc1nc2c(ncn2[C@H]2C[C@H](O)[C@@H](CO)O2)c(=S)[nH]1 [6thio-2dG, 6-THIO-2dG]
- DRI (Fa=0,5) ([1]; GCPA007T2IV, in combination Carbo+Pacli+6thio2dG): 0.95
- IC50 ([1]; GCPA007T2IV, monotherapy): > 50 µM
- DRI (Fa=0,5) ([2]; GCPA108T3IV, in Carbo+Pacli+6thio2dG): 6.093
- IC50 ([2]; GCPA108T3IV, monotherapy): > 50 µM
- DRI (Fa=0,5) ([3]; GCPA113T1I, in Carbo+Pacli+6thio2dG): 3.54
- IC50 ([3]; GCPA113T1I, monotherapy): > 50 µM
- DRI (Fa=0,5) ([4]; GCPA113T1II, drug within Carbo+Pacli+6thio2dG): 3.71
- IC50 ([4]; GCPA113T1II, monotherapy): > 50 µM
- DRI (Fa=0,5) ([5]; in Carbo+Pacli+6thio2dG (10:1:1), GCPA007T2I): 2.27
- IC50 ([5]; GCPA007T2I, cell viability 72 h after drug application): > 50 µM
- DRI (Fa=0,5) ([6]; drug within Carbo+Pacli+6thio2dG): 4.961
- IC50 ([6]; read-out: IC50 in monotherapy, monotherapy): > 50 µM
- DRI (Fa=0,5) ([7]; GCPA113T1III, drug within Carbo+Pacli+6thio2dG): 4.5
- IC50 ([7]; GCPA113T1III, monotherapy): > 50 µM
- DRI (Fa=0,5) ([8]; GCPA096T1I, in combination Carbo+Pacli+6thio2dG): 10.9
- IC50 ([8]; GCPA096T1I, monotherapy): > 50 µM
- DRI (Fa=0,5) ([9]; GCPA096T1XVI, in Carbo+Pacli+6thio2dG): 1.78
- IC50 ([9]; GCPA096T1XVI, monotherapy): 43.8 µM
- DRI (Fa=0,5) ([10]; GCPA096T1XV, drug within Carbo+Pacli+6thio2dG): 13.49
- IC50 ([10]; GCPA096T1XV, single drug, unit not given (compared with Cmax/Css in uM)): > 50 µM
- DRI (Fa=0,5) ([11]; GCPA096T1V, drug within Carbo+Pacli+6thio2dG): 9.08
- IC50 ([11]; GCPA096T1V, single drug, unit not given (compared with Cmax/Css in uM)): > 50 µM
- DRI (Fa=0,5) ([12]; GCPA096T1II, drug within Carbo+Pacli+6thio2dG): 12.35
- IC50 ([12]; GCPA096T1II, single drug, unit not given (compared with Cmax/Css in uM)): > 50 µM
- DRI (Fa=0,5) ([13]; GCPA028, in combination Carbo+Pacli+6thio2dG): 0.16
- IC50 ([13]; GCPA028, monotherapy): > 50 µM

SMILES: Cc1nc(Nc2ncc(C(=O)Nc3c(C)cccc3Cl)s2)cc(N2CCN(CCO)CC2)n1 [Dasatinib]
- IC50 ([1]; Homo sapiens, 72 h): > 20 µM
- IC50 ([2]; Homo sapiens, 72 h): 4.65 µM
- IC50 ([3]; Homo sapiens, 72 h): > 20 µM
- IC50 ([4]; Homo sapiens, 72 h): > 20 µM
- IC50 ([5]; Homo sapiens, 72 h): > 20 µM
- IC50 ([6]; Homo sapiens, 72 h, read-out: IC50 in monotherapy): 4.77 µM
- IC50 ([7]; Homo sapiens, 72 h): 18.1 µM
- Cmax/Css plasma (Log 10) ([14]; human maximum or steady state plasma concentration, log10 of the uM value): -0.9208 Log 10
- Cmax/Css plasma (Log 10) ([14]; human plasma Cmax/Css, log10 of uM value, from phase I/II clinical trials): -0.9208 Log 10
- Cmax/Css plasma (Log 10) [14, 15]: -0.9208 Log 10
- Cmax/Css plasma (Log 10) ([14]; human plasma, maximum or steady state concentration, log10 of uM value): -0.9208
- Cmax/Css plasma (Log 10) ([14]; human plasma, log10 of uM, phase I/II trials): -0.9208
- Cmax ([14]; human maximum or steady state plasma concentration): 120 nM
- Cmax ([14]; human plasma Cmax/Css, from phase I/II clinical trials): 120 nM
- Cmax [14, 15]: 120 nM
- Cmax ([14]; human plasma, maximum or steady state concentration): 120 nM
- Cmax ([14]; human plasma, phase I/II trials): 120 nM
- IC50 ([8]; Homo sapiens, 72 h): 14.2 µM
- IC50 ([9]; Homo sapiens, 72 h): > 20 µM
- IC50 ([10]; Homo sapiens): > 20 µM
- IC50 ([11]; Homo sapiens): > 20 µM
- IC50 ([12]; Homo sapiens): > 20 µM
- IC50 ([13]; Homo sapiens, 72 h): > 20 µM
